Assay results: ChEMBL document CHEMBL3351221, “Synthetic derivatives of aromatic abietane diterpenoids and their biological activities” (Eur J Med Chem, 2014)
≈ marks a conversion by molar mass, not a printed value. Blank lines part the entries; values can stand above or below the compound they belong to.

How the values were obtained:
[1] = Cytotoxicity against human Hey-1B cells; type: functional, cell-based
[2] = Cytotoxicity against human PC3 cells; type: functional, cell-based; conditions: PC-3
Staphylococcus aureus = assay: Antimicrobial activity against Staphylococcus aureus; type: functional
Escherichia coli = assay: Antimicrobial activity against Escherichia coli; type: functional
[3] = Cytotoxicity against human HL60 cells; type: functional, cell-based; conditions: HL-60
Mus musculus [4] = assay: Gastroprotective activity in mouse assessed as reduction in HCl/EtOH-induced gastric lesions at 10 mg/kg; type: functional; conditions: Stomach
Mus musculus [5] = assay: Gastroprotective activity in mouse assessed as reduction in HCl/EtOH-induced gastric lesions at 20 mg/kg; type: functional; conditions: Stomach
SMMC-7721 = assay: Cytotoxicity against human SMMC7721 cells; type: functional, cell-based
MRC5 = assay: Cytotoxicity against human MRC5 cells; type: cell-based
A549 = assay: Cytotoxicity against human A549 cells; type: functional, cell-based
C6 = assay: Cytotoxicity against rat C6 cells; type: functional, cell-based
MCF7 = assay: Cytotoxicity against human MCF7 cells; type: functional, cell-based
AGS = assay: Cytotoxicity against human AGS cells; type: cell-based
Mus musculus [6] = assay: Gastroprotective activity in mouse assessed as reduction in HCl/EtOH-induced gastric lesions at 100 mg/kg; type: functional; conditions: Stomach

SMILES: CC(=O)NC[C@]1(C)CCC[C@]2(C)c3cc(/N=C/c4cccc(O)c4)c(C(C)C)cc3CC[C@@H]12
IC50 [1]: 15 µg/mL (≈ 33.6 µM)

SMILES: CC(C)c1cc2c(cc1[N+](=O)[O-])[C@@]1(C)CCC[C@@](C)(CNC(=O)c3ccccc3Cl)[C@@H]1CC2
IC50 [1]: 11.3 µg/mL (≈ 24.1 µM)
IC50 [2]: 5.7 µg/mL (≈ 12.2 µM)

MIC (Staphylococcus aureus): 7.81 µg/mL
MIC (Escherichia coli): 250 µg/mL
SMILES: CC(C)c1ccc2c(c1)CC[C@H]1[C@](C)(C[N+](C)(C)C)CCC[C@]21C.COS(=O)(=O)[O-]

SMILES: COC(=O)[C@H](CO)NC(=O)[C@]1(C)CCC[C@]2(C)c3ccc(C(C)C)cc3CC[C@@H]12
IC50 [3]: 2300 nM

SMILES: CC(C)c1cc2c(cc1[N+](=O)[O-])[C@@]1(C)CCC[C@@](C)(CNC(=O)c3ccccc3)[C@@H]1CC2
IC50 [1]: 11.3 µg/mL (≈ 26 µM)
IC50 [2]: 5.7 µg/mL (≈ 13.1 µM)

SMILES: COC(=O)[C@]12CCCC(C)(C)[C@@H]1CCc1cc(C(C)C)c(OC(=O)c3ccccc3)c(OC(=O)c3ccccc3)c12
inhibition in vivo at 10 mg/kg (Mus musculus [4]): 73%

SMILES: CC(C)c1ccc2c(c1)CC[C@H]1C(C)(C)CCC[C@]21C
inhibition in vivo at 20 mg/kg (Mus musculus [5]): 69%

MIC (Staphylococcus aureus): 7.81 µg/mL
MIC (Escherichia coli): 250 µg/mL
SMILES: CC(C)c1ccc2c(c1)CC[C@H]1[C@](C)(C[N+](C)(CCO)CCO)CCC[C@]21C.COS(=O)(=O)[O-]

MIC (Staphylococcus aureus): 7.81 µg/mL
MIC (Escherichia coli): 250 µg/mL
SMILES: CC(C)c1ccc2c(c1)CC[C@H]1[C@](C)(C[N+](CCO)(CCO)CCO)CCC[C@]21C.[Cl-]

SMILES: COc1ccc(/C=N/c2cc3c(cc2C(C)C)CC[C@H]2[C@](C)(CNC(C)=O)CCC[C@]32C)cc1
IC50 [1]: 15 µg/mL (≈ 32.6 µM)

SMILES: CC(C)c1ccc2c(c1)CC[C@H]1[C@](C)(NC(=O)N3CCCCC3)CCC[C@]21C
IC50 (SMMC-7721): 8.8 µM

SMILES: Cc1c(C(=O)Oc2cc3c(cc2C(C)C)CC[C@H]2C(C)(C)CCC[C@]32C)oc2ccccc12
IC50 (MRC5): > 1 mM
inhibition in vivo at 20 mg/kg (Mus musculus [5]): 50%

SMILES: COc1ccc(/C=N/C[C@]2(C)CCC[C@]3(C)c4ccc(C(C)C)cc4CC[C@@H]23)c(O)c1
IC50 (SMMC-7721): 6.65 µM
IC50 (A549): 750 nM
IC50 (C6): 810 nM
IC50 (MCF7): 10.7 µM

SMILES: COC(=O)[C@@H](NC(=O)[C@]1(C)CCC[C@]2(C)c3ccc(C(C)C)cc3CC[C@@H]12)C(C)C
IC50 [3]: 2300 nM

SMILES: CC(C)c1cc2c(cc1OC(=O)c1cc([N+](=O)[O-])cc([N+](=O)[O-])c1)[C@@]1(C)CCCC(C)(C)[C@@H]1CC2
IC50 (MRC5): > 1 mM
IC50 (AGS): 29 µM

SMILES: CC(C)c1cc2c(cc1OC(=O)CCCc1c[nH]c3ccccc13)[C@@]1(C)CCCC(C)(C)[C@@H]1CC2
IC50 (MRC5): > 1 mM
inhibition in vivo at 20 mg/kg (Mus musculus [5]): 50%

SMILES: CC(C)c1ccc2c(c1)CC[C@H]1[C@](C)(NC(=O)Nc3cc(F)cc(F)c3)CCC[C@]21C
IC50 (SMMC-7721): 8.8 µM

SMILES: CC(C)c1ccc2c(c1)CC[C@H]1[C@](C)(C/N=C/c3ccc(C(F)(F)F)cc3)CCC[C@]21C
IC50 (SMMC-7721): 6.65 µM
IC50 (A549): 750 nM
IC50 (C6): 810 nM
IC50 (MCF7): 10.7 µM

SMILES: COc1ccc(NC(=O)[C@]2(C)CCC[C@]3(C)c4ccc(C(C)C)cc4CC[C@@H]23)cc1
inhibition in vivo at 100 mg/kg (Mus musculus [6]): 67%
IC50 (MRC5): > 1 mM
IC50 (AGS): > 1000 µM

SMILES: CCC(C)[C@H](NC(=O)[C@]1(C)CCC[C@]2(C)c3ccc(C(C)C)cc3CC[C@@H]12)C(=O)OC (stereo partly drawn)
IC50 [3]: 2300 nM

SMILES: COc1ccc(/C=N/C[C@]2(C)CCC[C@]3(C)c4ccc(C(C)C)cc4CC[C@@H]23)cc1
IC50 (SMMC-7721): 6.65 µM
IC50 (A549): 750 nM
IC50 (C6): 810 nM
IC50 (MCF7): 10.7 µM

SMILES: CC(C)c1cc2c(cc1OC(=O)Cc1c[nH]c3ccccc13)[C@@]1(C)CCCC(C)(C)[C@@H]1CC2
IC50 (MRC5): > 1 mM
IC50 (AGS): 12 µM
inhibition in vivo at 20 mg/kg (Mus musculus [5]): 50%

SMILES: CC(=O)Oc1cc2c(cc1C(C)C)CC[C@H]1C(C)(C)CCC[C@]21C
IC50 (MRC5): 0.019 mM
IC50 (AGS): 18 µM

SMILES: CC(C)c1cc2c(cc1O[C@@H]1O[C@H](CO)[C@@H](O)[C@H](O)[C@H]1O)[C@@]1(C)CCCC(C)(C)[C@@H]1CC2
IC50 (MRC5): 0.019 mM
IC50 (AGS): 18 µM

SMILES: CC(=O)NC[C@]1(C)CCC[C@]2(C)c3cc(/N=C/c4cc(Br)cc(Br)c4O)c(C(C)C)cc3CC[C@@H]12
IC50 [1]: 15 µg/mL (≈ 24.8 µM)

SMILES: CC(C)c1ccc2c(c1)CC[C@H]1[C@](C)(C(=O)Nc3ccc(I)cc3)CCC[C@]21C
inhibition in vivo at 100 mg/kg (Mus musculus [6]): 67%
IC50 (MRC5): > 1 mM
IC50 (AGS): > 1000 µM

SMILES: CC(C)c1ccc2c(c1)CC[C@H]1[C@](C)(NC(=O)Nc3ccc(F)cc3)CCC[C@]21C
IC50 (SMMC-7721): 8.8 µM

SMILES: CC(C)c1ccc2c(c1)CC[C@H]1[C@](C)(C(=O)Nc3ccccc3Cl)CCC[C@]21C
inhibition in vivo at 100 mg/kg (Mus musculus [6]): 67%
IC50 (MRC5): > 1 mM
IC50 (AGS): > 1000 µM

SMILES: CC(C)c1cc2c(cc1OC(=O)c1cccnc1)[C@@]1(C)CCCC(C)(C)[C@@H]1CC2
IC50 (MRC5): > 1 mM
IC50 (AGS): 22 µM
inhibition in vivo at 20 mg/kg (Mus musculus [5]): 71%

SMILES: C=CC(=O)Oc1cc2c(cc1C(C)C)CC[C@H]1C(C)(C)CCC[C@]21C
IC50 (MRC5): 0.019 mM
IC50 (AGS): 18 µM
inhibition in vivo at 20 mg/kg (Mus musculus [5]): 67%

MIC (Staphylococcus aureus): 7.81 µg/mL
MIC (Escherichia coli): 250 µg/mL
SMILES: CC(C)c1ccc2c(c1)CC[C@H]1[C@](C)(CNCCO)CCC[C@]21C.Cl
